From PubChem BioAssay AID192 (DTP/NCI, 2004)
“And” between values parts separate entries of the source, which are not always exact repeats. Equal entries are not always repeated. Toxic doses and inconclusive results are not listed.

Tested on: BDF1 mice, B16 melanoma ip, median survival T/C
Assay: NCI In Vivo Anticancer Drug Screen. Data for tumor model B16 Melanoma (intraperitoneal) in B6D2F1 (BDF1) mice
Conditions: endpoint: median survival time, higher = longer survival
How it was run: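 Survival or tumor size is measured after treatment of tumor-bearing mice and normalised to the vehicle-treated control group.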

[1] = dose: 50.0 mg/kg/injection, schedule: Q01DX009 (ip), vehicle: Klucel (hydroxypropylcellulose) (HPC)
[2] = dose: 100.0 mg/kg/injection, schedule: Q01DX009 (ip), vehicle: Klucel (hydroxypropylcellulose) (HPC)
[3] = dose: 200.0 mg/kg/injection, schedule: Q01DX009 (ip), vehicle: Klucel (hydroxypropylcellulose) (HPC)
[4] = dose: 6.25 mg/kg/injection, schedule: Q01DX009 (ip), vehicle: Klucel (hydroxypropylcellulose) (HPC)
[5] = dose: 50.0 mg/kg/injection, schedule: Q01DX009 (ip), vehicle: saline with Tween-80
[6] = dose: 100.0 mg/kg/injection, schedule: Q01DX009 (ip), vehicle: saline with Tween-80
[7] = dose: 200.0 mg/kg/injection, schedule: Q01DX009 (ip), vehicle: saline with Tween-80
[8] = dose: 5.0 mg/kg/injection, schedule: Q01DX009 (ip), vehicle: saline
[9] = dose: 1.56 mg/kg/injection, schedule: Q01DX009 (ip), vehicle: saline
[10] = dose: 3.12 mg/kg/injection, schedule: Q01DX009 (ip), vehicle: saline
[11] = dose: 6.25 mg/kg/injection, schedule: Q01DX009 (ip), vehicle: saline
[12] = dose: 12.5 mg/kg/injection, schedule: Q01DX009 (ip), vehicle: Klucel (hydroxypropylcellulose) (HPC)
[13] = dose: 25.0 mg/kg/injection, schedule: Q01DX009 (ip), vehicle: Klucel (hydroxypropylcellulose) (HPC)
[14] = dose: 50.0 mg/kg/injection, schedule: Q01DX009 (ip), vehicle: saline
[15] = dose: 100.0 mg/kg/injection, schedule: Q01DX009 (ip), vehicle: saline
[16] = dose: 200.0 mg/kg/injection, schedule: Q01DX009 (ip), vehicle: saline
[17] = dose: 25.0 mg/kg/injection, schedule: Q01DX009 (ip), vehicle: saline
[18] = dose: 25.0 mg/kg/injection, schedule: Q01DX009 (ip), vehicle: saline with Tween-80

## C=C1C(=O)OC2CC(C)C3(O)CCC(C)(CC(OC(=O)C(C)C)C12)O3 (stereo unspecified)
[1]
  T/C: 99 % of control
[2]
  T/C: 97 % of control
[3]
  T/C: 98 % of control

## COc1ccccc1N1CCN(CCc2c[nH]c3cc4c(cc23)OCO4)CC1
dose: 1.56 mg/kg/injection, schedule: Q01DX009 (ip), vehicle: Klucel (hydroxypropylcellulose) (HPC)
  T/C: 89 % of control
[4]
  T/C: 89 % of control

## CCSc1nc(C)cc(Cl)n1
[5]
  T/C: 100 % of control
[6]
  T/C: 104 % of control
[7]
  T/C: 88 % of control

## CCN(CC)c1ccc(N)cc1
[8]
  T/C: 109 % of control
dose: 10.0 mg/kg/injection, schedule: Q01DX009 (ip), vehicle: saline
  T/C: 95 % of control
dose: 20.0 mg/kg/injection, schedule: Q01DX009 (ip), vehicle: saline
  T/C: 95 % of control

## COc1ccc2c(=O)c(C)c(C)oc2c1CN1CCOCC1
dose: 0.39 mg/kg/injection, schedule: Q01DX009 (ip), vehicle: saline
  T/C: 104 % of control
dose: 0.78 mg/kg/injection, schedule: Q01DX009 (ip), vehicle: saline
  T/C: 114 % of control
[9]
  T/C: 108 % of control
[10]
  T/C: 98 % of control
[11]
  T/C: 115 % of control

## CC(C)N=C(N)/N=C(\N)Nc1ccc2ccc3ccccc3c2c1
[4]
  T/C: 112 % of control
[12]
  T/C: 103 % of control
[13]
  T/C: 87 % of control

## COc1cccc2c1C(=O)c1c(O)c3c(c(O)c1C2=O)C[C@@](O)(C(C)O)C[C@@H]3OC1CC(N2CCOCC2)C(O)C(C)O1 (stereo partly specified)
dose: 62.5 micrograms/kg/injection, schedule: Q01DX001 (ip), vehicle: water
  T/C: 100 % of control
dose: 125.0 micrograms/kg/injection, schedule: Q01DX001 (ip), vehicle: water
  T/C: 104 % of control
dose: 250.0 micrograms/kg/injection, schedule: Q01DX001 (ip), vehicle: water
  T/C: 112 % of control

## N=C(N)Sc1cc(O)ccc1O
[14]
  T/C: 105 % of control
[15]
  T/C: 94 % of control
[16]
  T/C: 91 % of control

## OCC1(CO)COC2(CCCCC2)N1
dose: 12.5 mg/kg/injection, schedule: Q01DX009 (ip), vehicle: saline
  T/C: 110 % of control
[17]
  T/C: 116 % of control
[14]
  T/C: 109 % of control
[15]
  T/C: 103 % of control
[16]
  T/C: 112 % of control
dose: 400.0 mg/kg/injection, schedule: Q01DX009 (ip), vehicle: saline
  T/C: 108 % of control

## CC(=O)NC(CC(C)C)C(=O)O (stereo unspecified)
[18]
  T/C: 108 % of control
[5]
  T/C: 121 % of control
[6]
  T/C: 101 % of control

## CCOc1ccccc1NC(=O)c1ccccc1Cl
[2]
  T/C: 106 % of control
[3]
  T/C: 106 % of control
dose: 400.0 mg/kg/injection, schedule: Q01DX009 (ip), vehicle: Klucel (hydroxypropylcellulose) (HPC)
  T/C: 93 % of control

## C/C=C(\C)C(=O)OC1CC[N+]2([O-])CCC(COC(=O)/C(=C/C)CO)C12 (stereo unspecified)
dose: 18.8 mg/kg/injection, schedule: Q01DX009 (ip), vehicle: saline
  T/C: 102 % of control
dose: 37.5 mg/kg/injection, schedule: Q01DX009 (ip), vehicle: saline
  T/C: 109 % of control
dose: 75.0 mg/kg/injection, schedule: Q01DX009 (ip), vehicle: saline
  T/C: 107 % of control
dose: 150.0 mg/kg/injection, schedule: Q01DX009 (ip), vehicle: saline
  T/C: 107 % of control

## Cc1ccc2[nH]c(=O)oc(=O)c2c1
dose: 50.0 mg/kg/injection, schedule: Q04DX003 (ip), vehicle: Klucel (hydroxypropylcellulose) (HPC)
  T/C: 98 % of control
dose: 100.0 mg/kg/injection, schedule: Q04DX003 (ip), vehicle: Klucel (hydroxypropylcellulose) (HPC)
  T/C: 96 % of control
dose: 200.0 mg/kg/injection, schedule: Q04DX003 (ip), vehicle: Klucel (hydroxypropylcellulose) (HPC)
  T/C: 93 % of control

## Oc1ccc(/C=N\N=C\c2ccc(O)cc2)cc1
[6]
  T/C: 95 % of control
[7]
  T/C: 90 % of control

## CC(C)[S][Pb]([c]1ccccc1)([c]1ccccc1)[c]1ccccc1
dose: 0.3 mg/kg/injection, schedule: Q01DX009 (ip), vehicle: gum acacia
  T/C: 97 % of control
dose: 0.6 mg/kg/injection, schedule: Q01DX009 (ip), vehicle: gum acacia
  T/C: 91 % of control
dose: 1.25 mg/kg/injection, schedule: Q01DX009 (ip), vehicle: gum acacia
  T/C: 89 % of control

## O=S(O)OS(=O)O
dose: 50.0 mg/kg/injection, schedule: Q04DX003 (ip), vehicle: saline
  T/C: 101 % of control
dose: 100.0 mg/kg/injection, schedule: Q04DX003 (ip), vehicle: saline
  T/C: 101 % of control
dose: 200.0 mg/kg/injection, schedule: Q04DX003 (ip), vehicle: saline
  T/C: 94 % of control

## NC(=O)CC1=NCCc2ccccc21
[17]
  T/C: 105 % of control
[14]
  T/C: 97 % of control
[15]
  T/C: 91 % of control and 105 % of control

## CCN(CC)[P+](c1ccccc1O)(N(CC)CC)N(CC)CC
[9]
  T/C: 100 % of control
[10]
  T/C: 105 % of control
[11]
  T/C: 107 % of control and 114 % of control

## CCNC(Cc1ccccc1)c1ccc(OC)cc1 (stereo unspecified)
[12]
  T/C: 106 % of control
[13]
  T/C: 100 % of control
[1]
  T/C: 113 % of control

## C=CS(=O)(=O)c1ccccc1
dose: 12.5 mg/kg/injection, schedule: Q01DX009 (ip), vehicle: saline with Tween-80
  T/C: 96 % of control
[18]
  T/C: 94 % of control
[5]
  T/C: 98 % of control

## O=C(O)c1ccccc1C(=O)Nc1ccc(Cl)cc1
[6]
  T/C: 105 % of control
[7]
  T/C: 94 % of control

## CCCCC(=O)OCC1OC(n2cnc3c(=S)nc[nH]c32)C(OC(=O)CCCC)C1OC(=O)CCCC (stereo unspecified)
[18]
  T/C: 119 % of control

## O=S(=O)(NC(=S)S)c1ccccc1
dose: 12.5 mg/kg/injection, schedule: Q01DX009 (ip), vehicle: water
  T/C: 91 % of control
dose: 25.0 mg/kg/injection, schedule: Q01DX009 (ip), vehicle: water
  T/C: 94 % of control
dose: 50.0 mg/kg/injection, schedule: Q01DX009 (ip), vehicle: water
  T/C: 86 % of control

## O=CNC(Cc1ccccc1)C(=O)O (stereo unspecified)
[5]
  T/C: 106 % of control
[6]
  T/C: 92 % of control
[7]
  T/C: 89 % of control

## Nc1nc(Br)c2ccccc2c1-c1ccc([N+](=O)[O-])cc1
[7]
  T/C: 91 % of control

## CC[n+]1ccc(Nc2ccc(NC(=O)c3ccc(Nc4cc[n+](CC)c5ccc(N)cc45)cc3)cc2)cc1
dose: 0.5 mg/kg/injection, schedule: Q01DX009 (ip), vehicle: saline
  T/C: 95 % of control
dose: 0.5 mg/kg/injection, schedule: Q01DX009 (ip), vehicle: water
  T/C: 96 % of control
dose: 1.0 mg/kg/injection, schedule: Q01DX009 (ip), vehicle: saline
  T/C: 102 % of control
dose: 1.0 mg/kg/injection, schedule: Q01DX009 (ip), vehicle: water
  T/C: 113 % of control
dose: 2.0 mg/kg/injection, schedule: Q01DX009 (ip), vehicle: saline
  T/C: 100 % of control
dose: 2.0 mg/kg/injection, schedule: Q01DX009 (ip), vehicle: water
  T/C: 116 % of control
dose: 4.0 mg/kg/injection, schedule: Q01DX009 (ip), vehicle: saline
  T/C: 111 % of control
dose: 4.0 mg/kg/injection, schedule: Q01DX009 (ip), vehicle: water
  T/C: 106 % of control
dose: 8.0 mg/kg/injection, schedule: Q01DX009 (ip), vehicle: saline
  T/C: 114 % of control

## Cc1cc(C)c(NC(=O)Nc2ccccc2)c(C)c1
[13]
  T/C: 94 % of control
[1]
  T/C: 94 % of control
[2]
  T/C: 108 % of control

## [Cl][Pt+2][Cl].[NH-]CC1(C[NH-])CCCCC1
dose: 1.5 mg/kg/injection, schedule: Q01DX009 (ip), vehicle: saline
  T/C: 190 % of control
dose: 3.0 mg/kg/injection, schedule: Q01DX009 (ip), vehicle: saline
  T/C: 208 % of control
dose: 6.0 mg/kg/injection, schedule: Q01DX009 (ip), vehicle: saline
  T/C: 208 % of control

## COc1ccc(/C=C/c2ccc3ccccc3[n+]2C)c(OC)c1OC
dose: 2.5 mg/kg/injection, schedule: Q01DX009 (ip), vehicle: saline
  T/C: 104 % of control
[8]
  T/C: 113 % of control

## COc1ccc(CC2C(=O)NC(C)C(=O)N(C)C3C(=O)N(C)C(Cc4ccc(O)c(c4)Oc4ccc(cc4)C3O)C(=O)NC(C)C(=O)NC(C)C(=O)N2C)cc1 (stereo unspecified)
dose: 0.5 mg/kg/injection, schedule: Q01DX009 (ip), vehicle: saline with Tween-80
  T/C: 152 % of control
dose: 125.0 micrograms/kg/injection, schedule: Q01DX009 (ip), vehicle: saline with Tween-80
  T/C: 118 % of control

## OC1CCC(O)C1(Cl)Cl (stereo unspecified)
[17]
  T/C: 98 % of control
[14]
  T/C: 109 % of control
[15]
  T/C: 91 % of control
